Marks after values point to notes of the source that are not given here.
What was measured:
[1] = MAD study: plasma pharmacokinetics after multiple oral dose titration of TS-134; assay type: in vivo, human; conditions: for AUC0‐tau, mean (CV[%]) / Cmax, mean (CV[%]) / t1/2, mean (CV[%]) / tmax, median: plasma, MAD Day 14, fed
[2] = compared with monkeys; cited from earlier work
[3] = SAD study: plasma pharmacokinetics after single oral TS-134; assay type: in vivo, human; conditions: for AUC0‐inf, mean (CV[%]) / Cmax, mean (CV[%]) / t1/2, mean (CV[%]) / tmax, median: plasma
[4] = SAD Parts A and C, 5 mg fasted (n = 6)
[5] = SAD Parts A and C, 10 mg fasted (n = 4)
[6] = SAD Parts A and C, 10 mg fed (n = 3)
[7] = SAD Parts A and C, 20 mg fasted (n = 3)
[8] = SAD Parts A and C, 20 mg fed (n = 3)

For `CC(C)[C@@H]1CC[C@@H](C)C[C@H]1OC(=O)O[C@@H](C)OC(=O)[C@H]1[C@@H]2C[C@H](F)[C@@](N)(C(=O)O)[C@@H]21` [MGS0274], the “dose proportionality of steady‐state plasma Cmax and AUC” value ([1]; MAD, 5–80 mg) was “dose proportional increases”, the “AUC0‐tau, mean (CV[%])” value ([1]; 5 mg (n = 8)) was 14.90 (37.92) h•ng mL^−1 and the “Cmax, mean (CV[%])” value ([1]; 5 mg (n = 8)) was 6.090 (79.22) ng mL^−1. The “t1/2, mean (CV[%])” value ([1]; 5 mg (n = 8)) was 1.247 (40.98) h, the “tmax, median” value ([1]; 5 mg (n = 8)) was 60 min and the “AUC0‐tau, mean (CV[%])” value ([1]; 10 mg (n = 8)) was 29.40 (23.81) h•ng mL^−1. For the same compound, the “Cmax, mean (CV[%])” value ([1]; 10 mg (n = 8)) was 13.91 (51.77) ng mL^−1, the “t1/2, mean (CV[%])” value ([1]; 10 mg (n = 8)) was 1.212 (35.09) h and the “tmax, median” value ([1]; 10 mg (n = 8)) was 30 min. The “AUC0‐tau, mean (CV[%])” value ([1]; 20 mg (n = 8)) was 56.36 (48.86) h•ng mL^−1, the “Cmax, mean (CV[%])” value ([1]; 20 mg (n = 8)) was 26.92 (66.42) ng mL^−1 and the “t1/2, mean (CV[%])” value ([1]; 20 mg (n = 8)) was 1.567 (39.16) h. For the same compound, the “tmax, median” value ([1]; 20 mg (n = 8)) was 30 min, the “AUC0‐tau, mean (CV[%])” value ([1]; 40 mg (n = 8)) was 122.0 (29.47) h•ng mL^−1 and the “Cmax, mean (CV[%])” value ([1]; 40 mg (n = 8)) was 40.38 (29.69) ng mL^−1. For the same compound, the “t1/2, mean (CV[%])” value ([1]; 40 mg (n = 8)) was 4.711 (52.68) h, the “tmax, median” value ([1]; 40 mg (n = 8)) was 60 min and the “AUC0‐tau, mean (CV[%])” value ([1]; 60 mg (n = 8)) was 170.0 (23.85) h•ng mL^−1. The “Cmax, mean (CV[%])” value ([1]; 60 mg (n = 8)) was 95.14 (42.43) ng mL^−1, the “t1/2, mean (CV[%])” value ([1]; 60 mg (n = 8)) was 7.549 (93.72) h and the “tmax, median” value ([1]; 60 mg (n = 8)) was 60 min. For the same compound, the “AUC0‐tau, mean (CV[%])” value ([1]; 80 mg Cohort 5 (n = 7)) was 142.0 (19.40) h•ng mL^−1, the “Cmax, mean (CV[%])” value ([1]; 80 mg Cohort 5 (n = 7)) was 85.27 (43.68) ng mL^−1 and the “t1/2, mean (CV[%])” value ([1]; 80 mg Cohort 5 (n = 7)) was 10.52 (57.99) h. For the same compound, the “tmax, median” value ([1]; 80 mg Cohort 5 (n = 7)) was 60 min, the “AUC0‐tau, mean (CV[%])” value ([1]; 80 mg Cohort 6 (n = 6)) was 203.9 (24.30) h•ng mL^−1 and the “Cmax, mean (CV[%])” value ([1]; 80 mg Cohort 6 (n = 6)) was 98.55 (37.09) ng mL^−1. The “t1/2, mean (CV[%])” value ([1]; 80 mg Cohort 6 (n = 6)) was 6.810 (23.98) h, the “tmax, median” value ([1]; 80 mg Cohort 6 (n = 6)) was 30 min and the “hydrolytic activity against MGS0274 in the human liver S9 fraction” value [2] was “comparable to that in monkeys”. For the same compound, the “reduction of plasma AUC in the fed group (food effect)” value ([3]; SAD, 10 and 20 mg TS‐134) was “almost no food effect”, the “reduction of plasma Cmax in the fed group (food effect)” value ([3]; SAD, 10 and 20 mg TS‐134) was “up to 45%” and the “plasma AUC of MGS0274 as share of the AUC of MGS0008” value ([3]; molar ratio, single and multiple oral administration, all treatment groups) was “approximately 3%”. The “AUC0‐inf, mean (CV[%])” value ([3]; SAD Part B, 10 mg fed (n = 6)) was 36.47 ^e (61.58) h•ng mL^−1, the “Cmax, mean (CV[%])” value ([3]; SAD Part B, 10 mg fed (n = 7)) was 13.00 (82.69) ng mL^−1 and the “t1/2, mean (CV[%])” value ([3]; SAD Part B, 10 mg fed (n = 7)) was 1.377 ^e (26.45) h. For the same compound, the “tmax, median” value ([3]; SAD Part B, 10 mg fed (n = 7)) was 30 min, the “AUC0‐inf, mean (CV[%])” value [3, 4] was 23.94 ^c (30.64) h•ng mL^−1 and the “Cmax, mean (CV[%])” value [3, 4] was 13.43 (55.44) ng mL^−1. For the same compound, the “t1/2, mean (CV[%])” value [3, 4] was 1.013 ^c (35.22) h, the “tmax, median” value [3, 4] was 30 min and the “AUC0‐inf, mean (CV[%])” value [3, 5] was 29.33 (31.92) h•ng mL^−1. For the same compound, the “Cmax, mean (CV[%])” value [3, 5] was 17.88 (40.87) ng mL^−1, the “t1/2, mean (CV[%])” value [3, 5] was 0.8765 (17.66) h and the “tmax, median” value [3, 5] was 60 min. For the same compound, the “AUC0‐inf, mean (CV[%])” value [3, 6] was 22.69 (8.60) h•ng mL^−1, the “Cmax, mean (CV[%])” value [3, 6] was 8.137 (16.40) ng mL^−1 and the “t1/2, mean (CV[%])” value [3, 6] was 1.505 (7.14) h. The “tmax, median” value [3, 6] was 15 min, the “AUC0‐inf, mean (CV[%])” value [3, 7] was 72.09 (50.40) h•ng mL^−1 and the “Cmax, mean (CV[%])” value [3, 7] was 49.07 (66.56) ng mL^−1. For the same compound, the “t1/2, mean (CV[%])” value [3, 7] was 1.477 (14.30) h, the “tmax, median” value [3, 7] was 15 min and the “AUC0‐inf, mean (CV[%])” value [3, 8] was 84.30 ^d (16.80) h•ng mL^−1. The “Cmax, mean (CV[%])” value [3, 8] was 33.27 (45.09) ng mL^−1, the “t1/2, mean (CV[%])” value [3, 8] was 1.669 ^d (7.05) h and the “tmax, median” value [3, 8] was 30 min.

Reference: paper PMC7576618 (British Journal of Clinical Pharmacology, 2020)
